By LC50 is commonly meant the concentration that kills 50% of the test population. High values mean lower toxicity, low ones greater toxicity.

The conditions of data set [1]: β-CD:legacy PFAS; from Wilson and Verrall, Langmuir; cited from earlier work.
A short description of data set [2]: 19F NMR association constants of β-CD:legacy PFAS complexes. The format is binding. The following applies: aqueous media, room temperature. As for the experimental part:
A detailed comprehensive Nuclear Magnetic Resonance (NMR) spectral study of the complexation of PFASs to β-CD was conducted, Weiss-Errico and O'Shea, J. Hazardous Mat. 2017 329, 57-65, with highlights herein. […] Competition studies with adamantane-carboxylic acid and phenol confirmed the persistence of the β-CD:PFAS complex. The aqueous solution pH, ionic strength, and the presence of humic acid have only a modest influence on the β-CD:PFAS complexes. Table 2 gives the association constants for β-CD complexes with a sample of the PFASs studied, including perfluoroheptanoic acid (PFHpA), perfluorooctanoic acid (PFOA), perfluorononanoic acid (PFNA), perfluorooctane sulfonate (PFOS), and perfluorooctanesulfonamide (PFOSA).

Data set [3] in a line: 19F NMR β-CD:PFOA association constants in the presence and absence of HSA. It counts as binding. An excerpt:
The capacity or remediation in a human host as a therapeutic application is illustrated by the competitive binding between Human Serum Albumin (HSA) and β-CD for PFOA. Different spectroscopic techniques were employed to understand the interactions between HSA, PFOA, and β-CD. The association between PFOA and β-CD in the presence of HSA in water was characterized using ^19F NMR experiments. Changes in the ^19F chemical shift of PFOA titrated with β-CD were monitored to compare the host-guest association in the presence and absence of 35 μM HSA. The observed change in chemical shift of each fluorine peak varied differently as a function of β-CD concentration. […] The association constants for fluorine atoms closer to the PFOA carboxylate head group with β-CD are weaker in the presence of HSA, whereas the fluorine atoms towards the end of the alkyl chain (tail) experience a stronger interaction with β-CD in the presence of HSA. The 1:1 β-CD:PFOA association constant decreases in the presence of HSA likely due to the interaction of the carboxylate group of PFOA with HSA that weakens the PFOA association to β-CD.
NMR experiments were performed with a 400 MHz Bruker instrument with a quad probe (operating at 376.498 MHz for ^19F). Hexafluorobenzene was used as the internal standard with a chemical shift of −164.9 ppm.

Data set [4] has as its system zebrafish (Danio rerio) embryo. As to the kind of experiment: Zebrafish embryo toxicity assay. It counts as in vivo. An excerpt: To assess the potential of β-CD to attenuate the developmental and lethal effects of PFOA, zebrafish (Danio rerio) embryo are used as a toxicological model. Practical advantages of the zebrafish embryo system include ease of rearing and a high fecundity, as well as small (˜1 mm) and nearly transparent embryos, rapid (≤5-7 day) embryo development, and a fully sequenced genome. As such, the zebrafish embryo has been employed to look at a wide range of environmental contaminants in terms of acute and chronic toxicity. Acute toxicological endpoints (e.g., embryotoxicity, teratogenicity, neurotoxicity) which are readily accessible in the zebrafish embryo model are, furthermore, aligned with the reported health concerns associated with PFOA, and the system has, indeed, been used to evaluate toxicity of PFOA and related perfluorinated alkyl substances.
Perfluorooctanoic acid (PFOA, 96% purity) was purchased from Sigma-Aldrich. β-Cyclodextrin (β-CD, 98% purity) was purchased from Acros Organics. Both chemicals were used without further purification. Stock solutions of PFOA (7.25 mM, i.e., 3000 parts-per-million [ppm]), 1:1 β-CD:PFOA (β-CD: 7.25 mM, PFOA: 7.25 mM), and 2:1 β-CD:PFOA (β-CD: 14.50 mM, PFOA: 7.25 mM) were prepared with deionized water in polypropylene tubes. The solutions were sonicated until dissolution of the solids was achieved. A control solution of deionized water was also stored in a polypropylene tube. Stock solutions were subsequently diluted over a relevant range of concentrations for assessment of zebrafish embryo toxicity.
Adult zebrafish were maintained in 30-L tanks at 28° C. with 14 h:10 h light/dark cycle, and bred (from approximately 10-30 individuals) above 10-L tanks in mesh enclosures. Eggs were collected (from the bottom of tanks) within 1 h of the end of the dark cycle, and following collection and washing, transferred to plates containing E3 medium. Eggs containing dead, or obviously poor quality embryos, were removed. The remaining embryos were used, within ˜2 hour post-fertilization (hpf), for toxicity assays.
Zebrafish Embryo Toxicity Assay Assays were conducted in polypropylene 24-well plates (Evergreen Scientific, Los Angeles, Calif.) with five embryos (4- to 32-cell stage) per replicate, i.e., well (n=4), in E3 medium for a total of 20 zebrafish embryos per treatment/concentration. Embryos were exposed to a range of PFOA concentrations (30, 50, 100, 150, 200, 250 and 300 ppm) alone, and in 1:1 and 2:1 ratios with β-CD, and subsequently observed at 1, 2, 3, 4 and 7 days post-fertilization (dpf) with a dissecting light microscope to assess mortality and relevant developmental toxicity. Exposures and assessments were repeated several times, in preliminary studies, to determine relevant concentration levels for PFOA, and generally confirm results. Lethality was calculated as the concentration corresponding to 50% mortality (LC50); the LC50 values, and their 95% confidence intervals, were calculated via Probit Analysis in SPSS. In addition to lethality, inhibition of embryo development was morphometrically assessed based on the interocular distance between eyes (as a proxy for body size) of 7 dpf embryos (i.e., eleuthero-embryo stage) as measured using Olympus DP2-BSW imaging software. Apparent neurobehavioral effects were additionally measured as the percent of 7-dpf eleuthero-embryos displaying listing (i.e., falling to one side) behavior within a 30 s period (with shaking between each measurement to allow embryos to right themselves). Statistical Analyses
One-way analysis of variance (ANOVA) of the LC50 values, as well as the interocular distance and percent listing at 7 dpf, was performed in GraphPad Prism. The significance level was set at p=0.05.

A short description of data set [5]: Control experiments: interaction of internal standard with cyclodextrins. To be noted: 1.44×10−3 M.
Description: The solution consisted of 50% D2O and 50% DI H2O, adjusted to pH 7 with 0.036 M NaOH. […] Each cyclodextrin (α-, β-, γ-) was added at various stoichiometric ratios and the solution was sonicated until dissolution of the CD was achieved.
For data set [6], the target named is Human Serum Albumin (HSA) (Homo sapiens, UniProt P02768). Briefly: HSA fluorescence (steady state and lifetime): reversal of PFOA binding by β-CD.
Chain of Human Serum Albumin (HSA) (P02768 25-609): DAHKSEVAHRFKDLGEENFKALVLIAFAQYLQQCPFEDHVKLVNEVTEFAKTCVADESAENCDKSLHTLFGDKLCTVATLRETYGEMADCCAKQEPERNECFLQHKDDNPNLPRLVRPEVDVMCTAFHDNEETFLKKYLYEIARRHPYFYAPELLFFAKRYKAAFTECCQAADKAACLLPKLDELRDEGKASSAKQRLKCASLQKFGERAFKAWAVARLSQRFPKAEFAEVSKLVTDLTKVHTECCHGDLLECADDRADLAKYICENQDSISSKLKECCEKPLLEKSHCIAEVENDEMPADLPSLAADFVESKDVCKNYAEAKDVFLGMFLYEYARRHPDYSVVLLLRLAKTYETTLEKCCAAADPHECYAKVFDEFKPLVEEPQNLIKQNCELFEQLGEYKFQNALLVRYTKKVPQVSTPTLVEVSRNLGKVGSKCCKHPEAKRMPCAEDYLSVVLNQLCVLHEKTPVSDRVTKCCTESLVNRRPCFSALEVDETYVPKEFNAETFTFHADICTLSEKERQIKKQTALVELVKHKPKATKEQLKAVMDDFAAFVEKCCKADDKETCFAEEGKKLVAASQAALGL
Description: For the fluorescence spectroscopy experiments, stock solutions of PFOA (10 mM and 100 μM), β-CD (5 mM), and HSA (20 μM) were prepared with a 50 mM sodium phosphate buffer (pH 7.4) solution in polypropylene tubes
Steady state emission experiments were performed with a PC1 Fluorometer (ISS Inc, Champaign, Ill.). The excitation wavelength was 295 nm, and the emission spectra were recorded between 305 and 440 nm using 1 nm slit width for both excitation and emission. The emission spectra were corrected for the inner filter effect; however, the inner filter effect was insignificant at the HSA concentrations used in this study. Fluorescence lifetime experiments (frequency-resolved) were performed with a ChronoFD Fluorometer (ISS Inc, Champaign, Ill.). The excitation wavelength was 280 nm and 2,5-diphenyloxazole (PPO) was used as a lifetime reference. For both steady state and fluorescence lifetime experiments, the concentration of HSA was 10 βM. PFOA and β-CD were titrated into the sample at various concentrations.
[7] abbreviates: 50 mM Phosphate Buffer (pH 7.4).
[8] abbreviates: 50 mM Phosphate Buffer (pH 7.4) with 35 μM HSA.

For the compound `O=C(O)C(F)(F)C(F)(F)C(F)(F)C(F)(F)C(F)(F)F` [PFHxA, perfluorohexanoic acid], the “Legacy PFAS Kassoc” value in data set [1] is on record as 2.35 +/− 0.46 × 10^4 M^−1.

For the compound `O=C(O)C(F)(F)C(F)(F)C(F)(F)C(F)(F)C(F)(F)C(F)(F)C(F)(F)F` [PFOA, perfluorooctanoic acid], the “K1:1 association constant” value in data set [2] (1:1 β-CD:PFAS complex) is 5.00 ± 0.10 × 10^5 M^−1. The “K2:1 association constant” value in data set [2] (2:1 β-CD:PFAS complex) is 1.20 ± 0.50 × 10^3 M^−1. The entries for the “K1:1 β-CD:PFOA” value in data set [3] (setting [7]) and in data set [3] (setting [8]) were 4.16 ± 0.88 × 10^5 M^−1 and 1.67 ± 0.33 × 10^5 M^−1, respectively. The “K2:1 β-CD:PFOA” value was 6.42 ± 1.78 × 10^2 M^−1 in data set [3] (setting [7]) and 9.09 ± 1.27 × 10^2 M^−1 in data set [3] (setting [8]). Also, the LC50 in data set [4] (1 dpf, ppm PFOA) is recorded as 47.3±3.6 ppm. This compound yielded an interocular distance in data set [4] (7 dpf, surviving embryos at sub-lethal concentrations ≤50 ppm PFOA, pooled) of 0.25±0.06 mm. The “percent of surviving embryos listing within a 30 second period” value in data set [4] (7 dpf, ≤50 ppm PFOA, pooled) is recorded as 96±9%. In data set [4] (PFOA concentrations above 100 ppm), the “lethality at 24 hpf” value was “all embryos dead”. Besides, the “embryos showing discernible deformities” value in data set [4] (by 7 dpf, bent spines and edemas) is roughly 5%. The hatching rates result in data set [4] (surviving embryos, hatched by 3 dpf) is given as “unaffected”.

In the case of `Fc1c(F)c(F)c(F)c(F)c1F` [hexafluorobenzene, Hexafluorobenzene], the interaction with cyclodextrins entry in data set [5] is “does not significantly interact with cyclodextrins”.

As for `OC[C@H]1O[C@@H]2O[C@H]3[C@H](O)[C@@H](O)[C@@H](O[C@H]4[C@H](O)[C@@H](O)[C@@H](O[C@H]5[C@H](O)[C@@H](O)[C@@H](O[C@H]6[C@H](O)[C@@H](O)[C@@H](O[C@H]7[C@H](O)[C@@H](O)[C@@H](O[C@H]8[C@H](O)[C@@H](O)[C@@H](O[C@H]1[C@H](O)[C@H]2O)O[C@@H]8CO)O[C@@H]7CO)O[C@@H]6CO)O[C@@H]5CO)O[C@@H]4CO)O[C@@H]3CO` [β-CD, β-Cyclodextrin], the “toxicity of β-CD alone” value in data set [4] (tested range up to maximum concentration 1645 ppm (1.45 mM) β-CD) is “No discernible toxicity”. Besides, in data set [6] (10 μM HSA titrated with PFOA, 1:1 and 2:1 β-CD:PFOA ratios), the “effect on PFOA binding to HSA, steady state fluorescence” value was “cannot completely reverse the first PFOA binding to HSA”. Besides, the “fluorescence intensity and λmax of HSA with PFOA” value in data set [6] (10 μM HSA, 500 μM PFOA, 5:1 β-CD:PFOA ratio (2500 μM β-CD)) was “return to the values observed for HSA in the absence of PFOA”. In addition, the “fluorescence lifetime τ and α values of HSA with PFOA” value in data set [6] (10 μM HSA, 50:1 PFOA:HSA, 5:1 β-CD:PFOA ratio) was “identical to those determined for HSA in the absence of PFOA”.

The values above are taken from patent US11149135B2, “Application of cyclodextrins (CDS) for remediation of perfluoroalkyl substances (PFASS)” (THE FLORIDA INTERNATIONAL UNIVERSITY BOARD OF TRUSTEES, priority 2017, dated 2021).
